Earlier results as cited in patent US20080003592A1, “Method for conducting pharmacogenomics-based studies” (priority 2003, published 2008).
Where a name gives a salt, the structure may show the parent alone.

Tests used:
[1] = advanced colorectal cancer
[2] = depending on the regimen

Structure (SMILES)	patients with an objective response to the drug ([1]; standard therapy)	patients with a complete response (complete tumor disappearance) ([1]; of the patients with an objective response)	patients suffering serious gastrointestinal or hematopoietic toxicity [2]	patients minimally improved (Alzheimer's patients receiving Cognex, controls about 33%)	patients showing no change or minimal worsening of their disease (patients receiving Cognex for Alzheimer's disease, controls about 68%)	patients much improved (patients receiving Cognex, controls about 1%)
O=c1[nH]cc(F)c(=O)[nH]1 [5-fluorouracil]	20-40%	1-5%	20-30%	–	–	–
Nc1c2c(nc3ccccc13)CCCC2 [Cognex, tacrine hydrochloride]	–	–	–	About 58%	about 45%	about 2%
